Consider four molecules from BindingDB's records for doi:10.1021/acs.jmedchem.7b01670 (Vrije Universiteit Amsterdam, 2018).

Each structure is given as a SMILES string.

One assay addresses T1, Phosphodiesterase (Trypanosoma brucei, UniProt Q8WQX9).
T1 sequence (Q8WQX9 whole entry): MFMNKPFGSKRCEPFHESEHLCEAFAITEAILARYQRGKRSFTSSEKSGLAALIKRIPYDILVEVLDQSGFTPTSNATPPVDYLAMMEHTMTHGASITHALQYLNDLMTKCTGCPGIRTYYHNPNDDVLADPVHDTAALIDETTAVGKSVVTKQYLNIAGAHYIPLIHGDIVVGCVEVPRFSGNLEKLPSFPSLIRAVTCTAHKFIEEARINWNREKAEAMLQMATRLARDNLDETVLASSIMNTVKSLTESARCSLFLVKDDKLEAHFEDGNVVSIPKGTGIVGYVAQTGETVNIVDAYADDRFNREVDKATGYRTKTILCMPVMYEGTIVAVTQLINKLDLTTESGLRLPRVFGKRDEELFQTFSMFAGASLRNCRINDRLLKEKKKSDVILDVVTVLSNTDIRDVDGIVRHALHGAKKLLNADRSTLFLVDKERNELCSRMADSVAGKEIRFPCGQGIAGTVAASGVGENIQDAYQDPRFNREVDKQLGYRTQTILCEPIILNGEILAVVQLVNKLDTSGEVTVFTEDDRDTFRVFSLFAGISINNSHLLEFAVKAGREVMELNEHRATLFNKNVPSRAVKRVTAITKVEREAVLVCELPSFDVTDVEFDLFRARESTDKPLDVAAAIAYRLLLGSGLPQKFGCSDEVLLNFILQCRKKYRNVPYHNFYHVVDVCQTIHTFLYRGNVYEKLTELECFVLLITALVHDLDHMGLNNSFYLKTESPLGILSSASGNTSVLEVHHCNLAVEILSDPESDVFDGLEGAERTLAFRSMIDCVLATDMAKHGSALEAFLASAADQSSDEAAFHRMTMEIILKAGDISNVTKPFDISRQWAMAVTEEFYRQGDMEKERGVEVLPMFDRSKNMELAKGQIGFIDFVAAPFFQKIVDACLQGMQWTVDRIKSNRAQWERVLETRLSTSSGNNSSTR
The experiment in a line: Inhibition of full length Trypanosoma brucei PDEB1 expressed in Sf21 insect cells using cAMP as substrate by scintillation proximity assay. A general note: In a scintillation proximity assay essentially only radioactivity close to the scintillant gives light.

Assay [1] concerns the target cAMP-specific 3',5'-cyclic phosphodiesterase 4B (Homo sapiens, UniProt Q07343). The assay can be described thus: Inhibition of full length recombinant human PDE4B1 expressed in Sf21 insect cells using cAMP as substrate by scintillation proximity assay.

Sequence of cAMP-specific 3',5'-cyclic phosphodiesterase 4B (Q07343 whole entry): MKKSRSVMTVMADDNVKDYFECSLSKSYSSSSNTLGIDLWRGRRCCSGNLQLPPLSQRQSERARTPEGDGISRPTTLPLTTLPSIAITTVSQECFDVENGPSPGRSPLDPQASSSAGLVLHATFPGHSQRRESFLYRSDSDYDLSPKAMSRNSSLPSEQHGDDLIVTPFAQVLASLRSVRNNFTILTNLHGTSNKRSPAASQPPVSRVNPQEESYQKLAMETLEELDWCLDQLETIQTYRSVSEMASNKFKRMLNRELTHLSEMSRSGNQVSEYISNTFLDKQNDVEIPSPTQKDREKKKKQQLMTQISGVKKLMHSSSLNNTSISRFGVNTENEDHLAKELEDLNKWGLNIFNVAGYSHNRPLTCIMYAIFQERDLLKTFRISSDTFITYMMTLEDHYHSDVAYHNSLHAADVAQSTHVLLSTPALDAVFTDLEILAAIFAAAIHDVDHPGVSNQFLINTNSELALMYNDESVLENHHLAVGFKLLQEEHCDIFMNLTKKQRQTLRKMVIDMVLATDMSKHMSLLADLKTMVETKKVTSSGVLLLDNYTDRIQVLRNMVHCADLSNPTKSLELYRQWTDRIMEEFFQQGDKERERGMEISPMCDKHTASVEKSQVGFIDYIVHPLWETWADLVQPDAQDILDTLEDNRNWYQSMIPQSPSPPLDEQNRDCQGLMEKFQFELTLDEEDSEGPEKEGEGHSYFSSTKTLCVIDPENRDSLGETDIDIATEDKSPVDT

As for `COc1ccc(C2=NN(C3CCCCCC3)C(=O)[C@@H]3CC=CC[C@H]23)cc1-c1ccc(C(=O)NCC(N)=O)cc1`, the Ki (as a rule, the dissociation constant of the complex between target and ligand, obtained from inhibition or displacement) stood at 40 nM at Phosphodiesterase and 630 nM in assay [1].
With `COc1ccc(C2=NN(C3CCCCCC3)C(=O)[C@@H]3CC=CC[C@H]23)cc1-c1ccc(C(=O)N2CCC(=O)C2)cc1`, the inhibition constant (Ki) at Phosphodiesterase turned out to be 1000 nM; in assay [1], 3160 nM.
Take `COc1ccc(C2=NN(C3CCCCCC3)C(=O)[C@@H]3CC=CC[C@H]23)cc1-c1ccc(C(=O)N2CC(=O)N(C)C2)cc1`: the inhibition constant Ki at Phosphodiesterase came out at 1580 nM; in assay [1] it was 2510 nM.
The matching figures for `COc1ccc(C2=NN(C3CCCCCC3)C(=O)[C@@H]3CC=CC[C@H]23)cc1-c1ccc(C(=O)N2CNC(=O)C2)cc1`: 631 nM and 631 nM.
